The record followed here is patent US6559126B2 (Institut Pasteur, priority 2000, dated 2003).

The term Kd denotes the free concentration of one partner at which half of the binding sites on the other are occupied at equilibrium, for simple one-to-one binding.

Read-outs that look alike come from different tables or passages of the source. Ends that are not written are not given here.

Test [1] concerns KDR. As to the kind of experiment: Competition assay of 125I-VEGF binding to CHO-KDR cells. The note with it: for efficiency of V1 analogues in displacing 125I-VEGF165 from CHO-KDR cells: displacement curves, FIGS. 10-11; for inhibitory effect on VEGF binding to KDR (CHO-KDR cells): fixed peptide concentration 2.1×10^−4 M, heparin present. As to the method:
Competition assay of binding to CHO-KDR cells. CHO-KDR cells were seeded in 24-well plates at a density of 5×10^5 cells/well. After 24 h, subconfluent plates were transferred at 4 C., and all subsequent operations were done at 4 C. […] The amount of radioactivity bound to the cells was counted in a gamma counter (LKB 1261 Multigamma). The receptor affinity and the number of binding sites per cell were determined by Scatchard's analysis (Scatchard, 1986).

The test system of another test is VEGF-R2 on HUV-EC cells. It is filed as binding. As to conditions: for Kd: Scatchard analysis. An excerpt: (§1) Experimental conditions are indicated in the legend of FIG. 10.
(see FIGS. 16A, B and C).

Test [2] has as its target T1, KDR (Homo sapiens, UniProt P35968).
T1 construct: expressed in transfected cells; host or cells: glycosaminoglycan-deficient pgsA 745 CHO cells, psV-7d expression vector
As to the kind of experiment: ELISA of phage-displayed peptide binding to CHO-KDR cells. The note with it: clones selected by anti-VEGF antibody binding, 10^12 pfu/ml. The protocol: Exponentially growing CHO-KDR cells were seeded in 96-well microtiter plates at 7×10^4 cells/well and left overnight at 37 C. Cells were fixed with paraformaldehyde (4% in PBS) for 15 min at room temperature and washed with PBS. Wells were then filled with PBS-Glycine 0.2%, kept for 15 min at room temperature and then washed with PBS. Phage particles (10^12 or 10^13/Ml) were added to each well and incubated 2 h at room temperature. Wells were washed with PBS and the amount of bound phage was detected with peroxidase-conjugated anti-M13 phage serum (Pharmacia Biotech, Uppsala, Sweden).

Test [3] has as its system HUAE cells. As to the kind of experiment: VEGF-induced HUAE cell proliferation. It counts as cell-based, human. The note with it: 2 ng/ml VEGF, peptide daily, counted after 5 days. As to the method:
(§2) Cell proliferation assay. To test the anti-VEGF antibody neutralizing effect, CPAE cells were plated into 96-well tissue culture plates at a density of 500 cells/well. After 24 h, various concentrations of anti-VEGF antibody were added. The cells were cultured for an additional day and cell proliferation was measured using the Cell proliferation ELISA kit from Boerhinger (Indianapolis, Ind.). Cells were incubated with BrdU for 4 h at 37 C., and the incorporation of BrdU in newly synthetized DNA was quantified by immunoassay as described by the manufacturer. To investigate the peptide effect, after 24 h of CPAE cell growth, 2.1×10^−4M synthetic peptides were added daily to the culture medium. Cell proliferation was assessed after 24 h, 48 h or 72 h as described above. […] Cells were trypsinized and counted after 5 days using a Coulter counter.

For test [4], the system named is VEGF-R2-VEGF165 and NP1-VEGF165 complexes. As to the kind of experiment: Cross linking of I125 VEGF165 to HUV-EC cells. It counts as binding, human. The note with it: V1 2.4×10−4M and 4.8×10−4M, I125 VEGF165 160 pM. An excerpt: FIG. 19: Cross linking of I125 VEGF165 (160 pM) to HUV-EC cells. 1: Total binding. […] 3: V1, (2.4×10−4M). 4: V1, (4.8×10−4M).
The 240-260 kDa complex could correspond to the […] complex and the 160-170 kDa complex could correspond to the NP1 -VEGF 165 complex. The labeling of the two complexes was decreased in the presence of the V1 peptide. (FIG. 19)

Test [5] deals with HUAE cells. As to the kind of experiment: KDR anti-idiotypic antibody (AIA)-induced HUAE cell proliferation. It counts as cell-based, human. The note with it: 100 ng/ml KDR anti-idiotypic antibodies, peptide daily, 5 days. As to the method:
as §2

The test system of another test is CPAE cells. As to the kind of experiment: CPAE cell proliferation assay (BrdU incorporation). It counts as cell-based, calf. As to the method: as §2
For the next test, the system named is HUVEC. As to the kind of experiment: VEGF165-induced HUVEC proliferation. It counts as cell-based, human. As to conditions: V1 400 μg/ml, various VEGF165 concentrations, 96 hours. The protocol: FIG. 13 Effect of V1 (400 μg/ml) VEGF165 induced HUVEC proliferation. Various concentrations of VEGF165 were added during 96 hours.
The inhibitory effect of V1 on Human umbilical vein endothelial cell (HUVEC) in primary culture.

The next test deals with T2, neuropilin 1 (NP1) (Homo sapiens, UniProt O14786).
T2 construct: endogenous in cells; host or cells: MDA-MB 231 breast tumoral cell line
As to the kind of experiment: Displacement of 125I-VEGF165 binding to MDA-MB 231 cells. As to conditions: cells without VEGF-R2, expressing NP1; read-out: CI 50 of inhibition of 125I VEGF165 binding to MDA-MB cells (converted).
Excerpt: as §1
For orientation: In a radioligand displacement assay an active substance lowers the binding of a labelled ligand.

The subject of test [6] is VEGF-induced corneal angiogenesis. As to the kind of experiment: Rabbit corneal pocket assay. It is filed as in vivo. As to conditions: day 12; for effect on VEGF-induced corneal angiogenic response: implant with 2 pmol VEGF and 30 nmol peptide; for corneal neovascularization by peptide alone vs vehicle: implant with 30 nmol peptide, no VEGF. The protocol:
Rabbit corneal pocket assay. […] These implants were inserted in New Zealand rabbit (Elevage du Trottis, Esperce, France) corneal stroma 2 mm away from the limbus (Favard et al, 1991). Neovascularization was assessed on day 12 by direct examination with a slit lamp and scored according to a 4 grade scale (grade 1: less than 1 mm long neovessels, grade 2: 1 mm long neovessels, grade 3: 1 to 2 mm long neovessels, grade 4: neovessels extending to the implant). Means and standard deviations were determined on 8 implant groups for each condition.

T1 sequence (P35968 20-1356): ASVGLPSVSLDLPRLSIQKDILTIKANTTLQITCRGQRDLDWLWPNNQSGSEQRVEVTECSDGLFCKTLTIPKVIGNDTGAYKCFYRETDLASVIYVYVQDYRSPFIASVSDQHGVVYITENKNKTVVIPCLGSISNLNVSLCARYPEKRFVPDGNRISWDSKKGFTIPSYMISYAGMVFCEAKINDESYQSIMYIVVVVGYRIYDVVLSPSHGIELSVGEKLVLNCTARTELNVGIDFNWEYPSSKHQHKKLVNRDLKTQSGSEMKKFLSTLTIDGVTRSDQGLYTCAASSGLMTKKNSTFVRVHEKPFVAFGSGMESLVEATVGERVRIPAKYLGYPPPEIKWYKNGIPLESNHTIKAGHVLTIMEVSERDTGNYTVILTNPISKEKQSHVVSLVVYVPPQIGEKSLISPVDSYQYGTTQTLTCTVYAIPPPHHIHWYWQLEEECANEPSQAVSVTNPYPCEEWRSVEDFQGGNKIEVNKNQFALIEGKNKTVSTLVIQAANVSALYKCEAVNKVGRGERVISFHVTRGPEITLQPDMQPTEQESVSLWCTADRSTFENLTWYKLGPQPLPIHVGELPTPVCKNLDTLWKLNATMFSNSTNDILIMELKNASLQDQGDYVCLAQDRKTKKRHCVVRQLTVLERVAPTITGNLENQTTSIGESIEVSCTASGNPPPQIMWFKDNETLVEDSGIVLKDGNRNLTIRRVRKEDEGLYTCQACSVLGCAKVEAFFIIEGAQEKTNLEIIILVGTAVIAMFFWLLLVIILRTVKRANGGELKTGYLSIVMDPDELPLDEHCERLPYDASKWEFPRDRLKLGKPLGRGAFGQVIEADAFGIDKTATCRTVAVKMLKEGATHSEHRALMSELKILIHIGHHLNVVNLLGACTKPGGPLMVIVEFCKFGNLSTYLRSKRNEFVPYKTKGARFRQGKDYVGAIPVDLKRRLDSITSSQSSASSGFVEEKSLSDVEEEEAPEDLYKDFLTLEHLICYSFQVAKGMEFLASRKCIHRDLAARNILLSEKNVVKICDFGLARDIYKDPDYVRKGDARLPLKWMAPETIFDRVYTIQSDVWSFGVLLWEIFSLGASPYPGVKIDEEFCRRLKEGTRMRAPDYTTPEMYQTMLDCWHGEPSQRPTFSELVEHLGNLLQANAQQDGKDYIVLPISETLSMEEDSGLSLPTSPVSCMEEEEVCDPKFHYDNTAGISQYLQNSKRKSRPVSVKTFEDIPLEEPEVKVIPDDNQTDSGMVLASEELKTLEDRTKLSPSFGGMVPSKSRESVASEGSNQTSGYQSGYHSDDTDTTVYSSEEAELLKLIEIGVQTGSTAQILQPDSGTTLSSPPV
T2 sequence (O14786 22-923): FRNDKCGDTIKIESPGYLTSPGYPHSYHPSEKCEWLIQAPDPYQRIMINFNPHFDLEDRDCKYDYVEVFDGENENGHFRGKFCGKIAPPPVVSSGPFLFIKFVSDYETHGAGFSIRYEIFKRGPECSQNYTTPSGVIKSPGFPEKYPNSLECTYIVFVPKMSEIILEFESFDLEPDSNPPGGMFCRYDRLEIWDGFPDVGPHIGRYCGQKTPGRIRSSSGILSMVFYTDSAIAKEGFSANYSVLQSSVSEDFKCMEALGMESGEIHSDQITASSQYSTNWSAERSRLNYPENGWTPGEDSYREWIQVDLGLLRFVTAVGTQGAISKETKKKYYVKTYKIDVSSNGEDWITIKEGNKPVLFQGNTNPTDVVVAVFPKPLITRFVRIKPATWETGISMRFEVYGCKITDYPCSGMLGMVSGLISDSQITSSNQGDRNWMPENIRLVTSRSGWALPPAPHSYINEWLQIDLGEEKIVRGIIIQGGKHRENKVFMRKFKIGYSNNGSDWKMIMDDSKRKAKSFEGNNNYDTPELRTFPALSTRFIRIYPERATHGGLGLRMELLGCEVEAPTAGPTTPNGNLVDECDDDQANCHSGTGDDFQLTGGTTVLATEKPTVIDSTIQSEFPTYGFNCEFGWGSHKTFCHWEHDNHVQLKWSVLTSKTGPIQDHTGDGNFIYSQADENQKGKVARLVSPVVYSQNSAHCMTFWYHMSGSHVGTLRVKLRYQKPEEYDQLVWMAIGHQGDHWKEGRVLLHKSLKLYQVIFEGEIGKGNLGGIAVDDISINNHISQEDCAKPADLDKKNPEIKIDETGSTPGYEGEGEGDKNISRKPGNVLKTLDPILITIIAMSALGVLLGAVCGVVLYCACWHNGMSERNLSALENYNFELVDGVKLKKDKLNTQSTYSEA

For “AAWLPPK [A9, V1 analogue, substitution of the C-terminal arginine by lysine]”, the “efficiency of V1 analogues in displacing 125I-VEGF165 from CHO-KDR cells” value (“efficiency of V1 analogues” for short) in the test on KDR [1] is “reduced the peptide efficiency”.
As for ATALPP [A10], the “efficiency of V1 analogues” value in the test on KDR [1] was “significantly reduced the peptide efficiency”.
For the substance VEGF, the Kd was 0.117 nM with VEGF-R2 on HUV-EC cells (read-out: Kd of I125 VEGF165 on HUV-EC cells, high affinity receptors) and 2.3 nM in the test with VEGF-R2 on HUV-EC cells (read-out: Kd of I125 VEGF165 on HUV-EC cells, second (lower affinity) receptors).
As for ATWLPPA [A7], in the test on KDR [1], the “efficiency of V1 analogues” value is listed as “totally devoid of activity”.
As for Heparin [reference compound], in the test on KDR [1], the “optimal heparin concentration for increasing VEGF binding to CHO-KDR cells” value stood at 1.8 µg/mL.
Turning to LPPNPTK [V6], the “ELISA signal of phage clones on CHO-KDR cells” value in the test with KDR [2] is “best reactivities”. The “inhibitory effect on VEGF binding to KDR (CHO-KDR cells)” value in the test with KDR [1] is listed as “no effect on VEGF binding to KDR”.
On to ATWLPPR [V1, ATWLPPR], for which the “ELISA signal of phage clones on CHO-KDR cells” value at KDR [2] is recorded as “best reactivities”. In addition, the “inhibition of VEGF-induced HUAE cell proliferation” value in the test with HUAE cells [3] is listed as “suppressed the mitogenic activity of VEGF in a dose dependent manner”. For the same substance, the “effect on VEGF binding to HUV-EC cells” value in the test with VEGF-R2 on HUV-EC cells (V1 40 μg/ml, Scatchard) is reported as “inhibited only the VEGF binding to high affinity receptors”. In addition, in [4], the “labeling of the two 125I-VEGF-receptor complexes” value is “decreased”. In the test with HUAE cells [5], the “inhibition of AIA-dependent HUAE cell proliferation” value was “could suppress the AIA-dependent cell proliferation”. The “reduction of CPAE cell proliferation” value with CPAE cells (2.1×10^−4 M peptide, 24 h) is on record as 60%. Further, in the test with KDR [1] (V1 50 μg/ml), the “effect on affinity of I125 VEGF165 for receptors of transfected CHO cells (Scatchard)” value is recorded as “lowered” and the “effect on heparin-dependent VEGF165 binding to transfected CHO cells” value is reported as “inhibited this heparin agonistic effect”. In addition, in the test on KDR [1], the “inhibitory effect on VEGF binding to KDR (CHO-KDR cells)” value is recorded as “showed an inhibitory effect”. Moreover, the “inhibition of VEGF-induced HUVEC proliferation” value in the test with HUVEC was “inhibited by V1 in a non competitive manner”. Also, on neuropilin 1 (NP1), the IC50 is 45200 nM. Also, in [6], the “effect on VEGF-induced corneal angiogenic response” value is on record as “totally abolished” and the “corneal neovascularization by peptide alone vs vehicle” value is listed as “did not improve the generation of new blood vessels”.
In the case of ILDNYKL [V5], the “inhibition of VEGF-induced HUAE cell proliferation” value in the test with HUAE cells [3] is listed as “no inhibitory effect”. For the same substance, the “inhibition of AIA-dependent HUAE cell proliferation” value in the test with HUAE cells [5] is reported as “unlike V5, V1 could suppress”. For the same substance, the “effect on VEGF binding to CHO-KDR cells, various concentrations” value in the test with KDR [1] (same conditions as V1 dose response, FIG. 5) is given as “did not modify VEGF binding”. In [6], the “effect on VEGF-induced corneal angiogenic response” value is recorded as “not modified” and the “corneal neovascularization by peptide alone vs vehicle” value is recorded as “did not improve the generation of new blood vessels”.
Take SLPAHAR [K4]: in the test on CPAE cells (in vitro), the “effect on endothelial cell growth (words, discussion)” value is “minor effect on endothelial growth”.
